Data reported in US8722714B2, “Oxazolidine derivatives as NMDA antagonists” (The Honk Kong University of Science and Technology, priority 2008, dated 2014).

Experiments:
MCAO rats = experiment: Middle cerebral artery occlusion (MCAO) model: mNSS, infarct volume, edema volume; format: in vivo, rat; conditions: for edema volume (% of the ipsilateral hemisphere) / infarct volume: 2 h MCAO; for infarct volume: mean±S.E.M.
Experimental: Before surgery, male rats were 259-354 g fasted overnight with free access to water. Briefly, rats were anesthetized with chloral hydrate (400 mg/kg, ip). Through a midline neck incision, the right common and external carotid artery were isolated from muscles and coagulated. A suture with a blunted tip was inserted into the internal carotid through the external carotid artery stump and advanced up to 21 mm or till resistance was […]. A thermostatically regulated heating pad was used to maintain temperature at 37° C. After 2 h of MCAO, the suture was removed to restore blood flow. In sham group, the same surgical procedure was performed except that the suture was introduced into the external carotid artery but not advanced. After surgery, the incision was sutured and the rats were returned to their cage with free access to water and food.
Neurological function of ischemic rats was graded on modified Neurological Severity Score (mNSS) system in a range of 0 to 18 (normal score, 0; maximal deficit score, 18). The mNSS system is a composite evaluation of motor and sensory function, balance impairment and reflex abnormality of ischemic animals (Chen et al., 2001 Intravenous administration of human umbilical cord blood reduces behavioral deficits after stroke in rats. Stroke 32:2682-8.). In the severity scores of injury, 1 score point is awarded for the inability to perform the test or for the lack of a tested reflex; thus, the higher the score, the more severe is the injury.
At 3 days after ischemia, whole brains were rapidly removed. The brain were sliced into 2-mm-thick coronal sections and stained with 1% 2,3,5-triphenyltetrazoliumchloride (TTC, Sigma) at 37° C. for 30 minutes in the dark, followed by fixation with 4% paraformaldehyde (PFA) at 4° C. overnight. The sections were scanned with scanner connected to a computer. The unstained areas, defined as infarct tissue, were calculated by using an image analysis program. The infarct volume was calculated by measuring the unstained area in each slice. The infarct area in each slice was calculated by subtracting the normal ipsilateral (ischemic) area from that of the contralateral (non-ischemic) hemisphere to reduce errors due to cerebral edema and was presented as a percentage relative to the area of the contralateral hemisphere.
The contralateral hemispheric volume was used as a control for calculation of ischemia-induced brain edema in the ipsilateral hemisphere. A net difference in hemispheric volumes was gained by subtracting the volume of the […] from that of the infracted hemisphere. Brain swelling was expressed as a percentage of the net difference in ischemic hemispheric volume over the contralateral hemispheric volume.
Rats were subjected to middle cerebral artery occlusion (MCAO) to induce focal cerebral ischemia. Neurological functions of these ischemic rats were then graded on a modified Neurological Severity Score (mNSS) system from a range of 0 to 18 (normal score, 0; maximal deficit score, 18). The mNSS system is a composite evaluation of motor and sensory function, balance impairment and reflex abnormality of ischemic animals. […]
3 days after ischemia, whole brains were rapidly removed, sliced into 2-mm-thick coronal sections, stained with 1% 2,3,5-triphenyltetrazoliumchloride (TTC) and fixed (FIG. 6a). […] Infarct volume was measured in the coronal brain sections.
Infarct volume and edema volume were also measured. […]

AKT = experiment: Western blot detection of AKT phosphorylation in rat cortical neurons; format: cell-based; conditions: 500 μM; rat cortical neurons 11 DIV
Experimental: Embryonic day 18 Sprague Dawley rat pups were decapitated, their brains removed, and the cortices were isolated. Tissues were triturated and isolated neurons were plated onto 60 mm plate and cultured with Neurobasal medium supplemented with 2% B27 (Invitrogen). Experiments were performed after 10-12 days in vitro (DIV). Cultured cells were stimulated with a test compound or vehicle control (DMSO) for different time intervals and then lysed with RIPA buffer including protease inhibitors. Cell lysates were stored at −80° C. before use. Before being loaded, the lysates were heated to 95° C. for 10 min, vortexed and centrifuged for 7 min at 15,000×g. Supernatants were electrophoresed on 10% SDS-polyacrylamide gel and transblotted to nitrocellulose membrane. The membranes were washed with 5% (w/v) powdered milk dissolved in PBS with 0.1% Triton X-100, followed by incubation at 4° C. overnight with rabbit polyclonal against phospho-ERK or phosphor-AKT (1:1000, Cell Signaling Technology). Next, the membranes were washed and incubated with horseradish peroxidase (HRP)-conjugated secondary antibodies. The signal was visualized using ECL Western Blotting Kit. Blots were stripped and probed for total ERK or AKT expression. […]
Western blot analysis was performed on the total cell lysates. Antibodies against phospho-ERK1/2 and phospho-AKT were used and detected with HRP conjugated secondary antibodies. […]

Adenosine A1 = target: T1, Adenosine A1 (Homo sapiens, UniProt P30542); experiment: Ligand binding assay (High-throughput Profile, CEREP)
T1 construct: CEREP, France (contract assay, High-throughput Profile)
T1 sequence (P30542 1-326): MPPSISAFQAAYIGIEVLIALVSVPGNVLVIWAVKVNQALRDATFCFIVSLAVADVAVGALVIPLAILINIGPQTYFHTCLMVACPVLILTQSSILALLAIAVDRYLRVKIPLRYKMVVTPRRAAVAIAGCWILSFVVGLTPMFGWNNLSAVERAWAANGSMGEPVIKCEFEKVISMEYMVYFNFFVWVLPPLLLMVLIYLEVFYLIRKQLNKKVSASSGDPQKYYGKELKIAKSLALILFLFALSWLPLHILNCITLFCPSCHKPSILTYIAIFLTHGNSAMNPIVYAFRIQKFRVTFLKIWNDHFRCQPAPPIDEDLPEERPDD
Experimental: (§1) To determine the pharmacological profile and potential targets of LC-02, 80 binding assays were performed (High-throughput Profile, CEREP, France). LC-02 was evaluated at a single concentration in these specific binding assays. […] A cutoff of 25% is considered as a moderate effect.
(§2) Compound LC-02 (10 μM) was subjected to ligand binding assays with human A3 and rat kappa receptor overexpressing cells. Results are expressed as a percent of control specific agonist response [100-(measured specific response/control specific agonist response)×100] obtained in the presence of LC-02.

Adenosine A2A = target: T2, Adenosine A2A (Homo sapiens, UniProt P29274); experiment: as above
T2 construct: CEREP, France (contract assay, High-throughput Profile)
T2 sequence (P29274 whole entry): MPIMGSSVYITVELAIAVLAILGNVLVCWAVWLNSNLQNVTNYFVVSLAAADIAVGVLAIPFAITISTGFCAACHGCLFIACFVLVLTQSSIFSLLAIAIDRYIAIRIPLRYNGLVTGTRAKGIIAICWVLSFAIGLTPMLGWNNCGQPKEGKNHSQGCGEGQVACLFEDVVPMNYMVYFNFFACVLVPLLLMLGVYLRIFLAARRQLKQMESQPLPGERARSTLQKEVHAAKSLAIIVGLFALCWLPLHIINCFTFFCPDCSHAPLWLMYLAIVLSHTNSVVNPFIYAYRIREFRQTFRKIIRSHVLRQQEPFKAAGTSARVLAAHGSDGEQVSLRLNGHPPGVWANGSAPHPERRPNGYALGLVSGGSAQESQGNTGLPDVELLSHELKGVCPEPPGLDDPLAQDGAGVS
Experimental: as §1, §2

Opioid (mu) = target: T3, Opioid (mu) (Homo sapiens, UniProt P35372); experiment: as above
T3 construct: CEREP, France (contract assay, High-throughput Profile)
T3 sequence (P35372 whole entry): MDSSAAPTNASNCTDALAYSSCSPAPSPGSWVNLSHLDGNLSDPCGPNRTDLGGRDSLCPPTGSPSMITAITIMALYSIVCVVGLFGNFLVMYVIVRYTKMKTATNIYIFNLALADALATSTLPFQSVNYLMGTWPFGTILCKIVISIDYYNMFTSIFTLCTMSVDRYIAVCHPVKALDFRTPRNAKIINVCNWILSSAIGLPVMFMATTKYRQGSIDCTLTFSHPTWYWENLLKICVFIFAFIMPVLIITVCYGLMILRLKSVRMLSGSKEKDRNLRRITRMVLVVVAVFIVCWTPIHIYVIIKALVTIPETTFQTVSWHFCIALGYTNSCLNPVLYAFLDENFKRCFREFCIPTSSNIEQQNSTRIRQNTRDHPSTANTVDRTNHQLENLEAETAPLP
Experimental: as §1, §2

## CC[C@H]1N[C@@H](CC(C)C)C(CC)(CC)O1 [LC-02]
MCAO rats; 35 mg/kg
  edema volume (% of the ipsilateral hemisphere): 2.44±0.43%
  infarct volume: 34.45%±3.38%
MCAO rats; 70 mg/kg oral, 24, 48 and 72 hours after MCAO, vs vehicle
  functional recovery, modified Neurological Severity Score (mNSS): significantly improved functional recovery
MCAO rats; 70 mg/kg
  edema volume (% of the ipsilateral hemisphere): 2.85±0.80%
MCAO rats; 70 mg/kg, P<0.01
  infarct volume: 18.49%±2.34%
AKT
  phosphorylation of AKT: phosphorylated within 5-15 min
Adenosine A1
  inhibition at 10 µM: 5%
Adenosine A2A
  inhibition at 10 µM: 6%
Opioid (mu)
  inhibition at 10 µM: 14%
